Laboratory results reported in patent publication EP4692088A1, “COMPOUND ACTING AS WRN HELICASE INHIBITOR” (SHANGHAI JEYOU PHARMACEUTICAL CO., LTD., priority 2023, dated 2024).

How the values were obtained:
LoVo = assay: Cell proliferation assay (CellTiter-Glo), LoVo; assay type: cell-based; details: Homo sapiens, 120 h, 5 days incubation
Description: (§1) SW48 cells were plated at a density of 1,500 cells/well, and LoVo, HCT116, and SW620 cells were plated at a density of 800 cells/well in a 96-well cell culture plate, and cultured in a 37°C incubator overnight. The test compounds, which were gradient-diluted with DMSO, were added, and after incubation for 5 days, cell viability was detected using a CellTiter-Glo kit. The CellTiter-Glo reagent was equilibrated to room temperature, and an appropriate amount was added to the cell plate, followed by shaking at room temperature for 12 min. The luminescence signal was detected using a microplate reader.
(§2) The luminescence signal values of the DMSO-treated wells and cell-free wells were used as negative and positive controls, respectively, to calculate the inhibition rate of compound on cell proliferation. The concentration-inhibition curve was fitted using the "log(inhibitor) vs. normalized response -- Variable slope" equation in GraphPad Prism 8 software to obtain the IC50. [formula]

[1] = Pharmacokinetic test in rats; assay type: in vivo; details: rat; SD rats, male, oral gavage, 10 mg/kg, plasma
Description: SD rats were taken as test animals. Example 4, Example 15, and Comparative Example HRO761 were given by gavage. The drug concentrations in rat plasma at different time points were determined by LC-MS/MS to investigate the pharmacokinetic characteristics of Example 4, Example 15, and Comparative Example HRO761 in rats.
• Experimental drugs: Example 4, Example 15, and Comparative Example HRO761; • Animals: SD rats, male, 240-260 g, purchased from Shanghai Jihui Laboratory Animal Care Co.,Ltd.
(§3) An appropriate amount of Example 4, Example 15, and Comparative Example HRO761 was weighed and added to an appropriate amount of dimethyl sulfoxide, solutol, and saline (final solvent: 5% DMSO + 10% solutol + 85% saline). The mixture was vortexed and sonicated to prepare a 1.0 mg/mL dosing solution.
The rats in gavage groups (3 rats per group) of Example 4, Example 15, and Comparative Example HRO761 were administered by oral gavage after overnight fasting (dose: 10 mg/kg, administration volume: 10 mL/kg), and the rats were fed 4 h after administration.
(§4) 0.2 mL of blood was collected from the animals before administration and at 0.083 h, 0.25 h, 0.5 h, 1 h, 2 h, 4 h, 6 h, 8 h, and 24 h after administration, and anticoagulated with sodium heparin. Blood samples were placed on ice after collection, and plasma was separated by centrifugation (centrifugation conditions: 8000 rpm, 5 min). The collected plasma was stored at -80°C before analysis.
The contents of Example 4, Example 15, and Comparative Example HRO761 in rat plasma after oral administration were determined by LC-MS/MS.
(§5) Based on the calculated concentrations of the compounds in plasma at different time points, the pharmacokinetic parameters of Example 4, Example 15, and Comparative Example HRO761 in rats were calculated using winnonlin software. The pharmacokinetic parameters of Example 4, Example 15, and Comparative Example HRO761 of the present disclosure are shown in Table 14.

WRN enzyme = target: T1, WRN enzyme (Homo sapiens, UniProt Q14191); assay: biochemical
T1 construct: host or cells: eukaryotic cells (not further specified)
T1 sequence (Q14191 whole entry): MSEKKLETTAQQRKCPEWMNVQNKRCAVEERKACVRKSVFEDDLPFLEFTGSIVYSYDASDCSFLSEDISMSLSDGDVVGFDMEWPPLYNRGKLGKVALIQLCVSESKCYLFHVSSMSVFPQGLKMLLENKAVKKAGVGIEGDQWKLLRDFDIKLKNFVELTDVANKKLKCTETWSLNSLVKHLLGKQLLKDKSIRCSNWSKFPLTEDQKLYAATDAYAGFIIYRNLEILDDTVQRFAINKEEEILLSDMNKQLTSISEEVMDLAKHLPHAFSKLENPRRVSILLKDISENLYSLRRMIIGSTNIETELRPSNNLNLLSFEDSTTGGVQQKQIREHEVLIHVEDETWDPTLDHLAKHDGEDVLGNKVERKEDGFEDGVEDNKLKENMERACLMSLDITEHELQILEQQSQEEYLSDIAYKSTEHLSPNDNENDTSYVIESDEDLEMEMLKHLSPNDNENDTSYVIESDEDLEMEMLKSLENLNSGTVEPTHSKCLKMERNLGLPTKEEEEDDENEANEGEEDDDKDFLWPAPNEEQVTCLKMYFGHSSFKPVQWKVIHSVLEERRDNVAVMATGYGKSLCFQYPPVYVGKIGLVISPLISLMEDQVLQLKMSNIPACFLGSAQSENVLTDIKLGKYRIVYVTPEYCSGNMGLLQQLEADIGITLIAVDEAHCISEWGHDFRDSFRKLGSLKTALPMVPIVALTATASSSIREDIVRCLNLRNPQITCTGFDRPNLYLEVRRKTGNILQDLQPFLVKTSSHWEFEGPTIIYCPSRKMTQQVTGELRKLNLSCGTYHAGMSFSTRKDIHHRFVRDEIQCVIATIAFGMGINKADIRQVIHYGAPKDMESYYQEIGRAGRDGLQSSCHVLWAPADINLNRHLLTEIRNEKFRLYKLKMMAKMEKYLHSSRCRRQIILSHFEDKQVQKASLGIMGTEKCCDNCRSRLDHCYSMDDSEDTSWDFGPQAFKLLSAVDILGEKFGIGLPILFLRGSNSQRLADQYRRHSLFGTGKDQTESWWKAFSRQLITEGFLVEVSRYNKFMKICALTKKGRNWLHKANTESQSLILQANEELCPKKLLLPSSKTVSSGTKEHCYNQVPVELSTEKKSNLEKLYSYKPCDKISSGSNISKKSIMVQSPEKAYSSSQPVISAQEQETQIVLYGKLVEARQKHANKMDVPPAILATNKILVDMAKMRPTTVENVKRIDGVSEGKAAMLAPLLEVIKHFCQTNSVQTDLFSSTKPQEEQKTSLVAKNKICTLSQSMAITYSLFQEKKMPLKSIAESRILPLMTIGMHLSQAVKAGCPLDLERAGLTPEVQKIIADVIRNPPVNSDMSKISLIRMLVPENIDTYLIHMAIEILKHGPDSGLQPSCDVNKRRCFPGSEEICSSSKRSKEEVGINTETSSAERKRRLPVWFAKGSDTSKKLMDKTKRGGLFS
Description: The WRN enzyme used in the experiment has a His-TEV tag at the N-terminus and is expressed in eukaryotic cells with a purity of 90%. The assay kit (ADP-Glo™ Kinase Assay) was purchased from Promega (Cat. No. V9101), aliquoted, and then stored in the refrigerator at -40°C. This kit could quantitatively detect the amount of ADP generated in the reaction. WRN hydrolyzed ATP to produce ADP. The ADP-Glo reagent was added to deplete excess ATP in the reaction system, followed by the addition of Kinase Detection Reagent to convert the ADP produced by the reaction into ATP and produce chemiluminescence. The enzyme activity of WRN can be reflected by detecting the chemiluminescence signal using a microplate reader.
Single-stranded DNA was annealed to form double-stranded DNA. 5× Annealing Buffer: 50 mM Tris pH 8.0, 100 mM NaCl. Annealing program: 95°C, 5 min.
2× WRN enzyme (1 nM) and 2× substrate (1 nM double-stranded DNA, 100 µM ATP) were prepared using a buffer (20 mM Bicine (pH 7.5), 10 mM KCl, 10 mM MgCl2, 0.005% BSG, 0.002% Tween 20, 1 mM TCEP). The test compound was dissolved in DMSO to 10 mM and was gradient-diluted using a 96-well V-bottom plate. First, 25 µL of 2× WRN enzyme and 0.5 µL of compound were added to a 96-well plate and incubated at room temperature for 30 min. Then, 25 µL of 2× substrate was added, and the reaction was carried out at room temperature for 60 min. 5 µL was taken from the reaction plate and transferred to a 384-well plate for detection. 5 µL of ADP-Glo reagent was added and incubated at room temperature for 60 min, followed by the addition of 10 µL of Kinase Detection Reagent and incubation at room temperature for 40 min. The chemiluminescence signal was detected using a microplate reader.

[2] = Pharmacokinetic test in mice; assay type: in vivo; details: mouse; CD-1 mice, male, oral gavage, 10 mg/kg, plasma
Description: CD-1 mice were taken as test animals. Example 4, Example 22, and Comparative Example HRO761 were given by gavage. The drug concentrations in mouse plasma at different time points were determined by LC-MS/MS to investigate the pharmacokinetic characteristics of the compounds of the present disclosure in mice.
• Experimental drugs: Example 4, Example 22, and Comparative Example HRO761; • Animals: CD-1 mice, male, 24-25 g, purchased from Shanghai Jihui Laboratory Animal Care Co.,Ltd.
as §3, with “4, Example 22, and Comparative” for “4, Example 15, and Comparative”, “weighed and sequentially added to” for “weighed and added to”
Three mice in gavage groups of Example 4, Example 22, and Comparative Example HRO761 were administered by oral gavage after overnight fasting (dose: 10 mg/kg, administration volume: 10 mL/kg), and the mice were fed 4 h after administration.
as §4, with “0.04 mL” for “0.2 mL”
LC-MS/MS was used to determine the content of the test compound in mouse plasma after intragastric administration.
as §5, with “22,” for “15,”, “mice” for “rats”, “13.” for “14.”

HCT116 cells = assay: Cell proliferation assay (CellTiter-Glo), HCT116; assay type: cell-based; details: Homo sapiens, 120 h, HCT-116, 5 days incubation
Description: as §1, §2

| Structure (SMILES) | IC50 (LoVo) [nM] | AUC(0-inf) [1] [ng·h/mL] | Cmax [1] [ng/mL] | IC50 (WRN enzyme) [nM] | AUC(0-inf) [2] [ng·h/mL] | Cmax [2] [ng/mL] | IC50 (HCT116 cells) [nM] |
| --- | --- | --- | --- | --- | --- | --- | --- |
| CCc1c(N2CCN(C(=O)c3ncnc(C)c3O)CC2)c(=O)c2nn(C3=CCOCC3)nc2n1CC(=O)Nc1ccc(C(F)(F)F)cc1Cl [Example 4] | 105 | 170000 | 19200 | 88.5 | 51500 | 24800 | 48 |
| CCc1c(N2CCN(C(=O)c3ncnc(C)c3O)CC2)c(=O)c2nn(C3=CCOCC3)nc2n1CC(=O)Nc1cc(F)c(C(F)(F)F)cc1Cl [Example 15] | – | 46400 | 9020 | 34.3 | – | – | – |
| CCc1c(N2CCN(C(=O)c3ncnc(C)c3O)CC2)c(=O)c2nn(C3=CCOCC3)nc2n1CC(=O)Nc1cc(F)c(Cl)cc1Cl [Example 22] | – | – | – | 46.8 | 83400 | 24600 | – |
